These results are taken from ChEMBL document CHEMBL1138963, “Design, synthesis, and pharmacological evaluation of R/S-3,4-dihydro-2,2-dimethyl- 6-halo-4-(phenylaminocarbonylamino)-2H-1-benzopyrans: toward tissue-selective pancreatic beta-cell KATP channel openers structurally related to (+/-)-cromakalim” (J Med Chem, 2006).

The species entered for one test is Rattus norvegicus. The test is described as follows: Myorelaxant activity against KCL-induced contraction of Wistar rat aortic rings. Conditions: Aorta. The format is functional.
The test system of test [1] is Pancreatic beta cell. The test is described as follows: Residual insulin release in Wistar rat pancreatic islet beta cells in presence of glucose at 1 uM. It counts as functional.
Test [2] relates to Pancreatic beta cell. Kind of test: Inhibition of insulin release in Wistar rat pancreatic islet beta cells. It counts as functional, cell-based.
Test [3] has as its system Pancreatic beta cell. Kind of test: Residual insulin release in Wistar rat pancreatic islet beta cells in presence of glucose at 10 uM. It counts as functional.
Test [4] has as its system Pancreatic beta cell. Kind of test: Selectivity ratio, IC50 for Wistar rat pancreatic islet beta cells/EC50 for aortic rings. The format is functional.

As a reminder, the EC50 is the concentration that produces a half-maximal response. Broadly, the IC50 is the concentration that gives 50% inhibition. On to `CC1(C)CC(NC(=O)Nc2ccc(Cl)cc2)c2cc(F)ccc2O1` (stereo not drawn), for which the EC50 in the test listed under Rattus norvegicus was > 30 µM. Also, the Activity is listed as 91.4% with Pancreatic beta cell [1] and 22.8% with Pancreatic beta cell [3]. In the test with Pancreatic beta cell [2], this molecule registered an IC50 of 3.6 µM. Besides, the Selectivity ratio in the test with Pancreatic beta cell [4] is <0.12.
As to `CC1(C)CC(NC(=O)Nc2ccccc2Cl)c2cc(Br)ccc2O1` (stereo not drawn), the concentration for a half-maximal effect (EC50) in the test filed under Rattus norvegicus is > 30 µM. The Activity with Pancreatic beta cell [3] was 41.8%.
The corresponding values for `COc1cccc(NC(=O)NC2CC(C)(C)Oc3ccc(F)cc32)c1` (stereo not drawn) are > 10 µM and 66.6%.
For the molecule `CC1(C)Oc2ccc(C#N)cc2C(N2CCCC2=O)C1O` (racemic) [CROMAKALIM], a half-maximal response in the test listed under Rattus norvegicus (EC50) required 0.13 µM. Also, the Activity was 95.3% in the test on Pancreatic beta cell [1] and 94.4% in the test on Pancreatic beta cell [3]. Further, in the test on Pancreatic beta cell [2], the IC50 was > 100 µM. Besides, the Selectivity ratio in the test on Pancreatic beta cell [4] is reported as >769.23.
In turn, `CC1(C)CC(NC(=O)Nc2ccccc2)c2cc(Cl)ccc2O1` (stereo not drawn) returned an EC50 in the test filed under Rattus norvegicus of 7.8 µM. Further, the Activity with Pancreatic beta cell [3] stood at 87.7%.
The corresponding values for `COc1ccc(NC(=O)NC2CC(C)(C)Oc3ccc(Cl)cc32)cc1` (stereo not drawn) are > 30 µM and 79.3%.
For `COc1cccc(NC(=O)NC2CC(C)(C)Oc3ccc(Br)cc32)c1` (stereo not drawn) the same measures were > 10 µM and 73.5%.
The corresponding values for `COc1ccccc1NC(=O)NC1CC(C)(C)Oc2ccc(F)cc21` (stereo not drawn) are > 10 µM and 84.4%.
For the molecule `CC1(C)CC(NC(=O)Nc2cccc(Cl)c2)c2cc(F)ccc2O1` (stereo not drawn), the EC50 in the test filed under Rattus norvegicus is > 300 µM. The Activity with Pancreatic beta cell [1] was 86%; in the test with Pancreatic beta cell [3], 28%. The same molecule registered an IC50 with Pancreatic beta cell [2] of 3.67 µM. Moreover, in the test on Pancreatic beta cell [4], the Selectivity ratio is given as <0.01.
For the molecule `CC1(C)CC(NC(=O)Nc2ccccc2)c2cc(F)ccc2O1` (stereo not drawn), the EC50 in the test listed under Rattus norvegicus turned out to be 17.1 µM. Further, the Activity in the test on Pancreatic beta cell [3] was 83.8%.
Turning to `CC1(C)CC(NC(=O)Nc2ccccc2Cl)c2cc(Cl)ccc2O1` (stereo not drawn), the EC50 in the test listed under Rattus norvegicus was > 300 µM. Besides, in the test on Pancreatic beta cell [3], the Activity was determined as 40.3%.
For `COc1cccc(NC(=O)NC2CC(C)(C)Oc3ccc(Cl)cc32)c1` (stereo not drawn) the same measures were > 10 µM and 84%.
Take `Cc1ccccc1NC(=O)NC1CC(C)(C)Oc2ccc(Cl)cc21` (stereo not drawn): the EC50 in the test listed under Rattus norvegicus was > 10 µM. Besides, in the test on Pancreatic beta cell [3], the Activity came to 85%.
For `COc1ccc(NC(=O)NC2CC(C)(C)Oc3ccc(F)cc32)cc1` (stereo not drawn) the same measures were 15.5 µM and 89%.
As to `Cc1cccc(NC(=O)NC2CC(C)(C)Oc3ccc(Cl)cc32)c1` (stereo not drawn), the EC50 in the test filed under Rattus norvegicus is > 10 µM. The Activity with Pancreatic beta cell [3] came to 65.8%.
With `COc1ccccc1NC(=O)NC1CC(C)(C)Oc2ccc(Cl)cc21` (stereo not drawn), in the test filed under Rattus norvegicus, the EC50 was > 10 µM. Moreover, the Activity in the test with Pancreatic beta cell [3] is recorded as 94.6%.
The corresponding values for `Cc1ccc(NC(=O)NC2CC(C)(C)Oc3ccc(Cl)cc32)cc1` (stereo not drawn) are > 30 µM and 69.5%.
On to `CC1(C)CC(NC(=O)Nc2cccc(Cl)c2)c2cc(Br)ccc2O1` (stereo not drawn), for which the EC50 in the test filed under Rattus norvegicus was > 30 µM. The Activity with Pancreatic beta cell [1] came out at 91.5%; in the test with Pancreatic beta cell [3], 28.6%. Also, the midpoint of inhibition with Pancreatic beta cell [2], the IC50, lay at 4.06 µM. Besides, the Selectivity ratio in the test on Pancreatic beta cell [4] was <0.14.
Turning to `COc1ccc(NC(=O)NC2CC(C)(C)Oc3ccc(Br)cc32)cc1` (stereo not drawn), the EC50 in the test filed under Rattus norvegicus was > 10 µM. Besides, in the test with Pancreatic beta cell [3], the Activity amounted to 79.2%.
For `Cc1cccc(NC(=O)NC2CC(C)(C)Oc3ccc(Br)cc32)c1` (stereo not drawn) the same measures were > 10 µM and 63.4%.
The corresponding values for `Cc1ccccc1NC(=O)NC1CC(C)(C)Oc2ccc(Br)cc21` (stereo not drawn) are > 30 µM and 79.5%.
The corresponding values for `CC1(C)CC(NC(=O)Nc2ccccc2Cl)c2cc(F)ccc2O1` (stereo not drawn) are > 30 µM and 51.4%.
For the molecule `Cc1ccc(NC(=O)NC2CC(C)(C)Oc3ccc(F)cc32)cc1` (stereo not drawn), in the test filed under Rattus norvegicus, the EC50 is > 30 µM. Further, the Activity in the test with Pancreatic beta cell [3] was 70.6%.
Take `CC1(C)CC(NC(=O)Nc2ccc(Cl)cc2)c2cc(Br)ccc2O1` (stereo not drawn): the EC50 in the test filed under Rattus norvegicus is > 300 µM. Further, the Activity was 92.2% in the test with Pancreatic beta cell [1] and 25.7% with Pancreatic beta cell [3]. This molecule also came in with a half-inhibitory concentration (IC50) in the test on Pancreatic beta cell [2] of 3.85 µM. Further, the Selectivity ratio in the test with Pancreatic beta cell [4] is reported as <0.01.
For the molecule `COc1ccccc1NC(=O)NC1CC(C)(C)Oc2ccc(Br)cc21` (stereo not drawn), in the test filed under Rattus norvegicus, the EC50 was > 10 µM. In the test with Pancreatic beta cell [3], the Activity is 72.8%.
For `CC1(C)CC(NC(=O)Nc2ccccc2)c2cc(Br)ccc2O1` (stereo not drawn) the same measures were 2.3 µM and 75.9%.
As to `Cc1cccc(NC(=O)NC2CC(C)(C)Oc3ccc(F)cc32)c1` (stereo not drawn), the EC50 in the test filed under Rattus norvegicus was > 30 µM. In the test on Pancreatic beta cell [3], the Activity is 75.2%.
Take `Cc1ccc(NC(=O)NC2CC(C)(C)Oc3ccc(Br)cc32)cc1` (stereo not drawn): in the test listed under Rattus norvegicus, the EC50 was > 30 µM. For the same molecule, the Activity in the test on Pancreatic beta cell [3] is recorded as 72.9%.
For `Cc1ccccc1NC(=O)NC1CC(C)(C)Oc2ccc(F)cc21` (stereo not drawn) the same measures were > 30 µM and 79%.
